# Test results reported in US12622910B2, “Inhibitors of Bruton's tyrosine kinase and methods of their use” (Janssen Pharmaceutica NV, priority 2021, dated 2026).
# Experiments:
# [1] = Blood-to-plasma concentration ratio; format: in vitro ADME; conditions: mouse, fresh blood
# BTK = BTK (Homo sapiens, UniProt Q06187); assay: Mechanistic PK/BTKO model and simulations; design: measuring free BTK levels in peripheral blood mononuclear cells (PBMCs) and calculating % BTKO; endogenous in cells; host or cells: human PBMCs, lysed after isolation from whole blood
# Description: A mechanistic covalent binding model (FIG. 2) was used to describe the receptor occupancy of compound of Formula (III). The equations describing the binding model are shown in equations 1-5.
# where symbols represent the free BTK protein concentration (BTK), drug-BTK complex (BTKb) and covalently bound complex (BTKi). The rate constants in the equations include zero-order rate of BTK synthesis (ksyn); the first-order rate of free BTK degradation (kdegf); the first-order rate of covalently bound complex degradation (Kdegi); association rate drug-BTK binding (kon); dissociation rate drug-BTK binding (koff). C1 is the concentration in central compartment. BTK0 is the baseline value of BTK. […]
# In order to refine predictions of % BTKO after multiple dosing for the MAD cohorts and to help select a starting dose for the subsequent first-in-patient oncology study, a prior mechanistic PK/PD model based on in vitro and in vivo BTKO data was updated with clinical PK/BTKO data collected from SAD cohorts of the FIH study. […] The evaluated dosing regimens included 12 mg, 36 mg, 70 mg, 100 mg, 140 mg, 200 mg QD dose. […]
# Once MAD data were available, the semi-mechanistic PK/PD model was updated with the acquired data from SAD and MAD cohorts. All covariate effects in the popPK analysis were evaluated on clearance from the central compartment (CL/F) only, except for body weight, food effect, and drug formulation. […]
# BTK, sequence (Q06187 whole entry): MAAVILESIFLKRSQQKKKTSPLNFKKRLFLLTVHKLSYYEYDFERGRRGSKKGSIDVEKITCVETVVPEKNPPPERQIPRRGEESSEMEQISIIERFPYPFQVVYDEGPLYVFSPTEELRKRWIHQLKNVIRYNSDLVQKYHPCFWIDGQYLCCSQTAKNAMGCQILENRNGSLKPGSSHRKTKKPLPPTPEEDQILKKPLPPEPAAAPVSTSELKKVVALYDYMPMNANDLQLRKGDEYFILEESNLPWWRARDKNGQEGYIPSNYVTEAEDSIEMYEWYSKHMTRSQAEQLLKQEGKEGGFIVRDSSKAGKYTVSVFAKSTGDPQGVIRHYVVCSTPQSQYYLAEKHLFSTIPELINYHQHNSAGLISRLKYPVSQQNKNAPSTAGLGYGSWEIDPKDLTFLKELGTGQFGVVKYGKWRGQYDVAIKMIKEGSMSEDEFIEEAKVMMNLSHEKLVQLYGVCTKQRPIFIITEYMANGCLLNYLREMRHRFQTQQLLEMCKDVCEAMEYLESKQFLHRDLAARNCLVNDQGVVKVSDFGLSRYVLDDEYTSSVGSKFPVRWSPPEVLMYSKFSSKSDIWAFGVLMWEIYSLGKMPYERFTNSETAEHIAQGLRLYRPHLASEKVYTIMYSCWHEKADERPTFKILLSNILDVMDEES
smiles,measurement,setting,value
"C=CC(=O)N[C@H]1CCC[C@H]1NC(=O)c1sc2nccc3c2c1NC(=O)N3c1cnc(CC(C)C)cc1C (atropisomer, axis not shown) [compound of Formula (III), N-((1R,2S)-2-Acrylamidocyclopentyl)-5-(S)-(6-isobutyl-4-methylpyridin-3-yl)-4-oxo-4,5-dihydro-3H-1-thia-3,5,8-triazaacenaphthylene-2-carboxamide]",blood plasma ratio at 1 μM,[1],0.84
same,"kon, PD model estimate","BTK; model (A), SAD cohorts 2-5",0.0447 l/nM/h
same,"kon, PD model estimate","BTK; model (B), all SAD and MAD data",0.0509 l/nM/h
